Among the data in PubChem BioAssay (NCI) are TGI values, retold here.

Among the test systems are SF-268 CNS; ACHN renal; T-47D breast; A498 renal; HOP-62 NSCLC; KM12 colon; OVCAR-4 ovarian; TK-10 renal; HCT-15 colon; DU-145 prostate.
What all share (assay): NCI anticancer screen, dose series, 48 h

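Test compounds were applied to cells in 96-well plates for 48 hours at 5 doses. Definition used: TGI = concentration required for complete inhibition of growth.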 Bounds are passed on as bounds.

For the compound `Nc1ccccc1OCCCOc1ccccc1N`, the TGI in the test with SF-268 CNS, in the test on ACHN renal, in the test with T-47D breast, with A498 renal, in the test on HOP-62 NSCLC and in the test with KM12 colon was > 100 µM throughout. Moreover, the TGI in the test with OVCAR-4 ovarian, in the test with TK-10 renal, in the test with HCT-15 colon and in the test on DU-145 prostate was > 100 µM throughout.
Turning to `CN(C)CC1CCCc2ccccc2C1=O` (stereo not given), the TGI in the test with SF-268 CNS turned out to be 5.55 µM; in the test with ACHN renal, 3.3 µM; with T-47D breast it was 17 µM; in the test on A498 renal it was 49.6 µM; with HOP-62 NSCLC, 33.7 µM; in the test on KM12 colon, 4.69 µM. The TGI with OVCAR-4 ovarian came to 2.01 µM; with TK-10 renal, 14.7 µM; in the test on HCT-15 colon, 4.55 µM; in the test with DU-145 prostate it was 10.7 µM.
As for `CCN(CC)C1Oc2cc3c(cc2C(c2cccc(OC)c2O)C1C)OCO3` (stereo not given), the TGI in the test on SF-268 CNS is > 54 µM; in the test with ACHN renal, 40.4 µM; in the test on T-47D breast, > 86 µM; with A498 renal, 7.24 µM; with HOP-62 NSCLC it was 21.3 µM; in the test with KM12 colon, 16.6 µM. Moreover, the TGI in the test with OVCAR-4 ovarian is > 100 µM; in the test with TK-10 renal, > 100 µM; in the test on HCT-15 colon it was > 53.2 µM; in the test on DU-145 prostate it was > 66.7 µM.
As for `COc1cc(C2c3cc(OC)c(OC)c(O)c3C(=O)C3CCC(=O)N32)cc(OC)c1OC` (stereo not given), the TGI in the test on SF-268 CNS, in the test on ACHN renal, in the test on T-47D breast, in the test on A498 renal, with HOP-62 NSCLC and with KM12 colon was > 100 µM in each case. Moreover, the TGI in the test with OVCAR-4 ovarian, in the test on TK-10 renal, in the test on HCT-15 colon and in the test with DU-145 prostate was > 100 µM throughout.
As to `CC(=O)c1ccc2c3c1O[C@H]1c4[nH]c5ccccc5c4C[C@@]4(O)[C@@H](C2)N(CC2CC2)CC[C@]314`, the TGI in the test with SF-268 CNS turned out to be 28.8 µM; in the test on ACHN renal, 30.9 µM; in the test on T-47D breast it was 44 µM; in the test on A498 renal, 16.1 µM; in the test on HOP-62 NSCLC, 36.5 µM; with KM12 colon, 37.6 µM. Besides, the TGI with OVCAR-4 ovarian came to 39.9 µM; in the test on TK-10 renal, 32.4 µM; in the test on HCT-15 colon, 25.3 µM; with DU-145 prostate it was 39.5 µM.
For `CS(=O)(=O)OCC1CCCCCCCCCCC12SCCCS2` (stereo not given), the TGI with SF-268 CNS, in the test on ACHN renal, with T-47D breast, with A498 renal, with HOP-62 NSCLC and in the test with KM12 colon was > 100 µM throughout. Also, the TGI in the test on OVCAR-4 ovarian, with TK-10 renal, in the test with HCT-15 colon and in the test with DU-145 prostate was > 100 µM each time.
Consider `O=C1c2cccnc2-c2nccc3c2c1nc1ccc(Br)cc13`, for which the TGI in the test with SF-268 CNS worked out at 0.143 µM; in the test on ACHN renal, 0.0957 µM; in the test on T-47D breast, 0.552 µM; in the test with A498 renal it was 0.223 µM; in the test on HOP-62 NSCLC, 0.194 µM; with KM12 colon it was 0.207 µM. Further, the TGI with OVCAR-4 ovarian is 0.324 µM; in the test with TK-10 renal, 0.749 µM; in the test with HCT-15 colon, 0.116 µM; with DU-145 prostate, 0.0577 µM.
For `CO[C@]12CC(=O)C3(C(C[C@H]4CC5CC[C@H]6C[C@@H](OC(C)=O)CC[C@]6(OC(C)=O)C5C[C@@]43C)C1)C1C[C@H]3[C@@H]4CC[C@H]5C[C@@H](OC(C)=O)CC[C@]5(OC(C)=O)[C@H]4CC[C@]3(C)C12` (stereo not given in full), the TGI in the test with SF-268 CNS, with ACHN renal, with T-47D breast, in the test on A498 renal, in the test on HOP-62 NSCLC and with KM12 colon was > 100 µM each time. Moreover, the TGI in the test on OVCAR-4 ovarian, with TK-10 renal, with HCT-15 colon and in the test with DU-145 prostate was > 100 µM each time.
